Source: article PMC9760444, “Direct targeting of sEH with alisol B alleviated the apoptosis, inflammation, and oxidative stress in cisplatin-induced acute kidney injury” (International Journal of Biological Sciences, 2023)

Target: T1, soluble epoxide hydrolase (sEH) (Homo sapiens, UniProt P34913)
T1 construct: gene EPHX2; Recombinant human sEH
T1 sequence (P34913 1-555): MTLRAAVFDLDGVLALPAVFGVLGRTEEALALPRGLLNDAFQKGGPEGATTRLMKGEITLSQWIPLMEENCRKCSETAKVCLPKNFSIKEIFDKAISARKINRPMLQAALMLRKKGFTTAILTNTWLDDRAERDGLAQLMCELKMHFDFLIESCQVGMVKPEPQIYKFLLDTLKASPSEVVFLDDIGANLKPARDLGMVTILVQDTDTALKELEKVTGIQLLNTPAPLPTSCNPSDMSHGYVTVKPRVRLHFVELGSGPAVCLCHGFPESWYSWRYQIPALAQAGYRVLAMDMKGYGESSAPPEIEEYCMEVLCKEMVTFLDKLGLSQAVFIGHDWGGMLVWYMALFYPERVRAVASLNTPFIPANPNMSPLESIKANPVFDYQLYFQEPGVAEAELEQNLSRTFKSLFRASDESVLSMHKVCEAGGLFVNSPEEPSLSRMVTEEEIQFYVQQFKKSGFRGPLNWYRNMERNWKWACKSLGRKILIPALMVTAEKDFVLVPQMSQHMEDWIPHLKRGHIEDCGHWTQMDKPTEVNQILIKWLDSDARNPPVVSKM
Assay: SPR (Biacore T200); supported by inhibition kinetics (Ki […]), pull-down, CETSA, SIP, DARTS
Type: binding

`C[C@H](C[C@H](O)[C@H]1OC1(C)C)C1=C2C[C@H](O)[C@H]3[C@@]4(C)CCC(=O)C(C)(C)[C@@H]4CC[C@]3(C)[C@@]2(C)CC1` [alisol B] gave a Kd of 1320 nM.
